Laboratory results as given in US8686051B2, “Pharmaceutical composition for treatment of diabetic complications” (VLife Sciences Technologies Pvt. Ltd., priority 2007, dated 2014).
Structures can show the parent of a compound that is named as a salt.

Experiments:
[1] = system: formation of sorbitol in red blood cells (RBC); test: Estimation of sorbitol in red blood cells incubated with 30 mM glucose; type: cell-based
Method: The cells were incubated with 30 mM glucose in vitro. Sorbitol was estimated by the method of reported by Malone, et al. Diabetes; 1980; 29: 861-864.

[2] = biological target: T1, purified human recombinant aldose reductase (Homo sapiens, UniProt P15121); test: Aldose reductase (AR) inhibition, spectrophotometric NADPH oxidation assay; type: biochemical; settings: for IC50: read-out: Aldose reductase inhibitory IC50
T1 construct: made in house; host or cells: E. coli
Excerpt: For enzyme inhibition studies, purified human recombinant aldose reductase (expressed in E. coli) was used for testing the aldose reductase (AR) inhibitory activity of beta adrenergic antagonists by a spectrophotometric method, using glyceraldehydes as substrate, (Mol. Vis. 2004, 10, 148-154). Recombinant human aldose reductase was purified from bacterial cultures. Enzyme from expression cultures was extracted and purified essentially as described previously (J Biol Chem 1992; 267: 24833-40) with the exception that affinity chromatography over AffiGel Blue (Bio-Rad) was used as a final purification step. AR activity was assayed according to the method described by Hayman and Kinoshita (J Biol Chem 1965; 240: 877-82). The assay mixture in 1 ml contained 50 μM potassium phosphate buffer pH 6.2, 0.4 mM lithium sulfate, 5 μM 2-mercaptoethanol, 10 μM DL-glyceraldehyde, 0.1 μM NADPH, and enzyme preparation (rat lens or recombinant enzyme). Appropriate blanks were employed for corrections. The assay mixture was incubated at 37° C. and initiated by the addition of NADPH at 37° C. The change in the absorbance at 340 nm due to NADPH oxidation was followed in a Cary Bio 100 spectrophotometer. For inhibition studies concentrated stocks of the Beta adrenergic antagonists, timolol, esmolol, sotalol, nebivolol, carvedilol, metoprolol and labetalol were prepared in water. Various concentrations of Beta adrenergic antagonists, as test compounds, were added to the assay mixture and incubated for 5-10 minutes before initiating the reaction by NADPH as described above. The percent of inhibition with test compounds was calculated considering the AR activity in the absence of inhibitor was 100%. The concentration of each test sample giving 50% inhibition (IC50) was then estimated.

[3] = system: collagen (hydroxyproline); test: Measurement of collagen (tissue hydroxyproline by HPLC); type: in vivo, rat; parameters: Collagen production: unit not given here
Excerpt: The synthesis of the 19 known collagens occurs within the cell, as it does for other proteins. The collagen molecule is characterized by the repeating sequence Gly-X-Y, with X often being proline and Y often being hydroxyproline. Hydroxyproline is the end product of collagen breakdown. For this reason, tissue hydroxyproline level is an indirect and objective variable of tissue collagen production. In many experimental studies, hydroxyproline has been used to assess tissue collagen production.
Collagen levels in the tissue were measured by use of high performance liquid chromatography (HPLC) for separating and quantitating the levels of hydroxyproline from the rat tissue. A reverse-phase Nova-Pak C18 column and solvent system (140 mM sodium acetate, 0.05% triethylamine (TEA), 6% acetonitrile) were used, resulting in complete separation of hydroxyproline. Recovery of standards ranged from 89 to 103% and intra-assay variability was <8%. Additionally, [^3H]hydroxyproline measurements were used to examine changes in collagen turnover in the rat labeled with [^3H]proline and “chased” in the presence of 10 mM unlabeled proline.

[4] = system: wound on dorsal skin of diabetic Wistar rats; test: Diabetic wound healing in streptozocin-diabetic rats, topical treatment; type: in vivo; settings: for Wound diameter: diabetic rats, topical
Method: Wistar rats were kept in standard autoclaved rodent cages with ad libitum food (Harland Tekland Irradiated Rodent Diet) and autoclaved water. The rats were housed on Harlan Tek-chip pelleted paper in static micro isolators maintained at 72° F., 60% humidity, and a 12 hour light cycle. The animals were kept at the facility for 10 days to get accustomed to the environment, after the arrival from the vendor. Diabetes was induced in the rats by intraperitoneal injection of 50 mg/kg body weight of streptozocin on 5 consecutive days. The wound was created on the rat by using a contortive scratcher to make a 2 mm incision with 0.57-0.62 mm depth on the dorsal skin of the animal. The area was shaved and sanitized with normal lugol's iodine prior to use of the scratcher.
Esmolol hydrochloride (10%) was administered three times daily or the standard treatment control, by smearing the agent directly onto the wound. The positive control used was platelet derived growth factor that is commercially available. The treatment was continued until the wounds of the treated mice were completely healed. […]
Several wound healing parameters were measured on the day 3, day 7, day 12 and day 19 of the creation of the wound. These parameters are reported in separate tables below. The wound size and weight of the rats was measured every alternate day. Specifically, the length and width of the wound were measured by use of micro vernier calipers, and the tensile strength at the edge of the wound was also recorded every other day. The wound diameter was measured by the same investigator on day 3, 12, 19 by the use of an electronic digital vernier caliper (B&D, Pomanus, N.J.). The caliper was calibrated just before the measurement by adjusting the zero error. […]
The area for evaluation was cut clean by an Eppendorf 10 size scalpel and the tissue was preserved in 10% of phosphate buffered formalin solution. The tissues were removed from this formalin solution and immersed in 100% of ethanol for 6 hours. The tissue were again removed and preserved for evaluation in 10% Bouins solution. […]
The quantity of exudation from wound was measured by the use of a micropipette (Eppendorf). […]
The adherence is the strength by which the two ends of the wound are attached together and measured by a Velcro index meter.
Fluid accumulation was measured by volume of fluid obtained from wound using micro pipette as described in Table 8. […]

[5] = system: nitric oxide (nitrate/nitrite); test: Measurement of nitric oxide (nitrite/nitrate) in tissue by chemiluminescence; type: in vivo, rat; settings: total versus controls
Method: Fresh tissue (approximately 0.2 g) was added to 1 ml cold homogenizing buffer (20 mmol/l HEPES-KOH, pH 7.9; 25% glycerol; 420 mmol/l NaCl; 1.5 mmol/l MgCl2; 0.2 mmol/l EDTA; 0.5 mmol/l dithiothreitol; 0.2 mmol/l phenylmethylsulphonyl fluoride). The buffered tissues were homogenized at maximum speed for 5 seconds and cooled in ice-water for 30 seconds. This procedure was repeated five times to ensure complete tissue destruction.
Two volumes of 100% cold ethanol were added to the homogenized samples; these were vortexed and incubated on ice for 30 minutes. The homogenate was centrifuged at 12,000×g for 5 minutes at 4° C., and the supernatant transferred to a new tube on ice for NO measurement.
A rapid-response chemiluminescence analyzer was used to measure total gas phase NO (nitrate/nitrite). NO gas reacts with ozone, producing energy in the form of light, and the light is proportional to the quantity of NO present. The emission was measured using a luminometer to determine NO concentration.
The sample tube was securely connected to a Zero Gas Filter (Sievers Instruments) and room air passed through the device for 5 minutes. […] The sample gas was then exposed to the ozone in the reaction vessel to form activated nitrogen dioxide (NO2), which was detected using a red-sensitive photomultiplier tube, and the output recorded using an integrating pen recorder. […]

CC(C)(C)NC[C@H](O)COc1nsnc1N1CCOCC1 [Timolol, timolol maleate]
Sorbitol concentration in RBC ([1]; RBC under 30 mM glucose + 250 μM of timolol): 17.34 µg/mL
aldose reductase inhibition (in words) [2]: effective aldose reductase inhibition
IC50 [2]: 250 µM

COC(=O)CCc1ccc(OCC(O)CNC(C)C)cc1 (centres unmarked) [Esmolol, esmolol hydrochloride]
Collagen production ([3]; Day 3): 124
Collagen production ([3]; Day 7): 287
Collagen production ([3]; Day 12): 325
Collagen production ([3]; Day 19): 288
Collagen production ([3]; Total): 1024
Collagen production, % Increase ([3]; total versus controls): 68%
Sorbitol concentration in RBC ([1]; RBC under 30 mM glucose + 150 μM of esmolol): 16.16 µg/mL
Ease of removal from wounds ([4]; Day 3): 2.6 +/− 0.2
Evaluation of biopsy wounds in diabetic rats ([4]; Day 3): 1.3 +/− 0.3
Exudation ([4]; Day 3): 1.2 ± 0.2 µL
Film transparency ([4]; Day 3): 1.7 +/− 0.3
Flexibility ([4]; Day 3): 2.3 +/− 0.2
Fluid accumulation ([4]; Day 3): 2.3 +/− 0.4
Wound adherence ([4]; Day 3): 2.6 +/− 0.4
Wound diameter: degree of contraction ([4]; Day 3): 12.17 +/− 5.8%
Wound diameter ([4]; Day 3): 1.28 +/− 0.12 MM
Ease of removal from wounds ([4]; Day 7): 2.8 +/− 0.3
Evaluation of biopsy wounds in diabetic rats ([4]; Day 7): 1.3 +/− 0.2
Exudation ([4]; Day 7): 2.7 ± 0.5 µL
Film transparency ([4]; Day 7): 2.3 +/− 0.4
Flexibility ([4]; Day 7): 2.4 +/− 0.5
Fluid accumulation ([4]; Day 7): 2.7 +/− 0.5
Wound adherence ([4]; Day 7): 3.3 +/− 0.3
Ease of removal from wounds ([4]; Day 12): 2.7 +/− 0.5
Evaluation of biopsy wounds in diabetic rats ([4]; Day 12): 1.4 +/− 0.3
Exudation ([4]; Day 12): 3.5 ± 0.6 µL
Film transparency ([4]; Day 12): 2.6 +/− 0.6
Flexibility ([4]; Day 12): 3.5 +/− 0.6
Fluid accumulation ([4]; Day 12): 2.6 +/− 0.7
Wound adherence ([4]; Day 12): 3.9 +/− 0.5
Wound diameter: degree of contraction ([4]; Day 12): 41.86 +/− 13.2%
Wound diameter ([4]; Day 12): 1.37 +/− 0.17 MM
Ease of removal from wounds ([4]; Day 19): 2.5 +/− 0.4
Evaluation of biopsy wounds in diabetic rats ([4]; Day 19): 1.5 +/− 0.3
Exudation ([4]; Day 19): 4.9 ± 0.2 µL
Film transparency ([4]; Day 19): 3.3 +/− 0.4
Flexibility ([4]; Day 19): 3.9 +/− 0.8
Fluid accumulation ([4]; Day 19): 2.5 +/− 0.5
Wound adherence ([4]; Day 19): 4.7 +/− 0.5
Wound diameter: degree of contraction ([4]; Day 19): 98.64 +/− 9.6%
Wound diameter ([4]; Day 19): 0.79 +/− 0.28 MM
Ease of removal from wounds ([4]; Total): 10.6 +/− 1.4
Evaluation of biopsy wounds in diabetic rats ([4]; Total): 5.5 +/− 1.1
Exudation ([4]; Total): 12.3 ± 1.1 µL
Film transparency ([4]; Total): 9.9 +/− 1.1
Flexibility ([4]; Total): 12.1 +/− 2.9
Fluid accumulation ([4]; Total): 10.1 +/− 1.2
Wound adherence ([4]; Total): 14.5 +/− 0.9
Period for epithelization ([4]; rat, in vivo): 9.8 ± 0.8 days
Scar formation ([4]; rat, in vivo): 1.3 +/− 0.4 Score
Time taken for complete wound closure ([4]; rat, in vivo): 19.6 ± 2.2 days
NO increase, % Increase [5]: 53%
aldose reductase inhibition (in words) [2]: effective aldose reductase inhibition
IC50 [2]: 160 µM

COCCc1ccc(OCC(O)CNC(C)C)cc1 (centres unmarked) [Metoprolol, metoprolol tartrate]
IC50 [2]: > 350 µM

CC(CCc1ccccc1)NCC(O)c1ccc(O)c(C(N)=O)c1 (centres unmarked) [Labetalol, labetalol hydrochloride]
IC50 [2]: > 350 µM

OC(CNCC(O)C1CCc2cc(F)ccc2O1)C1CCc2cc(F)ccc2O1 (centres unmarked) [Nebivolol, nebivolol hydrochloride]
IC50 [2]: > 350 µM

COc1ccccc1OCCNCC(O)COc1cccc2[nH]c3ccccc3c12 (centres unmarked) [Carvedilol, carvedilol]
IC50 [2]: > 350 µM

CC(C)NCC(O)c1ccc(NS(C)(=O)=O)cc1 (centres unmarked) [Sotalol, sotalol hydrochloride]
IC50 [2]: > 350 µM

CC(C)NCC(O)COc1cccc2ccccc12.Cl (centres unmarked) [Propranolol, propranolol hydrochloride]
Sorbitol concentration in RBC ([1]; RBC under 30 mM glucose + 350 μM of propranolol): 18.25 µg/mL
aldose reductase inhibition (in words) [2]: effective aldose reductase inhibition
IC50 [2]: 350 µM
